Measurements taken from PubChem BioAssay AID2387 (Broad Institute, 2010).
Activity calls are given as the source filed them.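 The calls were made as follows: active = fitted EC50 no more than tenfold above the highest tested concentration; inconclusive = flat fit with 30 to 70% signal loss, or poor fit; inactive = the rest.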

The molecules below were run on Candida albicans CaCi-2 growth (no fluconazole), Alamar Blue (assay: C. albicans growth inhibition without fluconazole, dose response, counter-screen for fluconazole resistance reversal project, CaCi-2 strain, Alamar Blue fluorescence (AID 2387)). Conditions: C. albicans CaCi-2 (fluconazole-resistant clinical isolate) growth without fluconazole, 48 h.
In the case of `CC[n+]1c(C=C2C=C(C)OC(C)=C2)sc2ccccc21`, the EC50 is reported as > 16 µM (inactive).
With `COc1cccc(COc2cc3ccccc3nc2C)c1` the EC50 was > 16 µM (inactive).
For `O=C(c1ccc(Cl)cc1)N1CCN(c2ccnc3cc(Cl)ccc23)CC1`, the EC50 was > 15 µM (inactive).
`CCOC(=O)N1C(=O)C2(CCCCC2)N(c2ccccc2Cl)C1=S` showed an EC50 of 14.6 µM.
With `CCc1ccccc1NC(=S)N=Nc1c(O)n(C)c2ccc(S(=O)(=O)N3CCOCC3)cc12` the EC50 was > 15 µM (inactive).
With `Cc1cc(C)n(-c2nc3ccccc3c(=O)n2OCC#N)n1` the EC50 was 11.2 µM.
For `COc1ccc(-n2cc(-c3ccc(C)cc3)[n+]3c2SCC3)cc1`, the EC50 was > 15 µM (inactive).
With `CC(=O)Nc1ccc(Nc2c3ccccc3nc3ccccc23)cc1` the EC50 was > 15 µM (inactive).
In the case of `Cn1cc(C(c2ccccn2)c2cn(C)c3ccccc23)c2ccccc21`, the EC50 is reported as > 15 µM (inactive).
`c1ccc(CC2CCN(c3ncnc4sccc34)CC2)cc1` was tested, and the EC50 was > 16 µM (inactive).
Molecule `CC(C)C(=O)NC(c1cccs1)c1cc([N+](=O)[O-])c2cccnc2c1O` (configuration not stated) has an EC50 of 12.9 µM.
For `C[C@@H]1C[C@@H]2O[C@H]2/C=C\C=C\C(=O)Cc2c(Cl)c(O)cc(O)c2C(=O)O1`, the EC50 was > 16 µM (inactive).
In the case of `CC(C)CC(=O)NC(c1cccs1)c1ccc2cccnc2c1O` (configuration not stated), the EC50 is reported as 14.2 µM.
`S=c1[nH]nc(C2CCCCC2)n1/N=C/c1ccc(Br)s1` was tested, and the EC50 was > 15 µM (inactive).
In the case of `O=C(Nc1nnc(SCc2ccc(Cl)cc2)s1)c1cnccn1`, the EC50 is reported as > 16 µM (inactive).
For `CCCn1nnnc1NC(=O)c1ccc2ccccc2c1`, the EC50 was > 15 µM (inactive).
For `COc1ccc(C(NC(=O)C(C)C)c2ccc3cccnc3c2O)cc1` (configuration not stated), the EC50 was > 15 µM (inactive).
With `CC/C(=N/NC(=O)c1ccccc1O)c1c(C)[nH]n(-c2ccccc2)c1=O` the EC50 was > 15 µM (inactive).
For `Nc1nonc1-n1nnc(C(=O)N/N=C/c2cc(Cl)ccc2O)c1CN1CCCCCC1`, the EC50 was > 15 µM (inactive).
`O=C(CCc1ccccc1)NNC(=S)NC(=O)c1ccccc1` was tested, and the EC50 was > 15 µM (inactive).
With `Oc1c(C(Nc2nc3ccccc3s2)c2ccco2)ccc2cccnc12` (configuration not stated) the EC50 was 4.68 µM.
With `CC(C)Cc1nc2oc3c(=O)[nH]cnc3c2c2c1CCCC2` the EC50 was > 15 µM (inactive).
For `O=C(N/N=C/c1c(O)ccc2ccccc12)c1cccc(C(F)(F)F)c1`, the EC50 was 1.42 µM.
With `O=c1[nH]c(-c2ccccn2)nc(C(F)(F)F)c1Br` the EC50 was > 15 µM (inactive).
Work on `CC[n+]1c(/C=C2\Sc3ccccc3N2C)ccc2cccc(C)c21` yielded an EC50 of 2.43 µM.
With `Nc1ccc(C(=O)N/N=C\c2ccc(OC(=O)c3ccccc3Cl)cc2)cc1` the EC50 was > 16 µM (inactive).
`Cc1cc(=O)oc2cc(Oc3ccc([N+](=O)[O-])cc3[N+](=O)[O-])ccc12` was tested, and the EC50 was > 16 µM (inactive).
